The record followed here is US12295970B2, “Imidazoquinoline compounds and prodrugs thereof” (UNIVERSITY OF KANSAS, priority 2019, dated 2025).

The target in one experiment is T1, hTLR7 (Homo sapiens, UniProt Q9NYK1).
T1 construct: host or cells: HEK293 (HEK-Blue hTLR7)
T1 sequence (Q9NYK1 27-1049): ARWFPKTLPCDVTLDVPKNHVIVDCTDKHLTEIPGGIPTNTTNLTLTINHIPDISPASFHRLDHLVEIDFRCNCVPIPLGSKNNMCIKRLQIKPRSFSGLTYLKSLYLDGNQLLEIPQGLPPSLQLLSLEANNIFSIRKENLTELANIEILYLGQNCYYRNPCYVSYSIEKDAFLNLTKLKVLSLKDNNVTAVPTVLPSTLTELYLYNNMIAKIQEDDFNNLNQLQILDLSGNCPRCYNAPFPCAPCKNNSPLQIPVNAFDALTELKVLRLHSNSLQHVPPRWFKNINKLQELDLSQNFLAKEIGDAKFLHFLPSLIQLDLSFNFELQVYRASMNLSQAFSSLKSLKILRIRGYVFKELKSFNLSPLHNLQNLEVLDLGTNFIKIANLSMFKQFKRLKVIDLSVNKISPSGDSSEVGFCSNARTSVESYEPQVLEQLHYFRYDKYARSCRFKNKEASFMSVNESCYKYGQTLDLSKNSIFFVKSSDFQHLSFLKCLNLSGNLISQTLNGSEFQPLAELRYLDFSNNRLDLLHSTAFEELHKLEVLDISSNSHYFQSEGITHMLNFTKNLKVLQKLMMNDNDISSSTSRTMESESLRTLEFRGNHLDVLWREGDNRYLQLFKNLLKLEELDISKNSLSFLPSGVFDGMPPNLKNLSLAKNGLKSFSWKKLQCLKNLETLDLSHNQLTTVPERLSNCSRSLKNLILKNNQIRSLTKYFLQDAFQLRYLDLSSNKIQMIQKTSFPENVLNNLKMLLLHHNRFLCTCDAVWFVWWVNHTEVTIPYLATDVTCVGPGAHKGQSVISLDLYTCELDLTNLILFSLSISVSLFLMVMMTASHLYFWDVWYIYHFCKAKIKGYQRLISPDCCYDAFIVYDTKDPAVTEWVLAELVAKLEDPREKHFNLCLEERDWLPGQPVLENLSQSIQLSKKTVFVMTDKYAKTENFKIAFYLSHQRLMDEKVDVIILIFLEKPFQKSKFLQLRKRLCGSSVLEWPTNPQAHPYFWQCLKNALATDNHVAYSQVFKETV
Description: SEAP reporter assay for hTLR-7 activity (HEK-Blue hTLR7 cells). Format: cell-based. As to the method:
TLR activation induces NF-κB production and subsequent SEAP secretion, which is measured using HEK-Detection media (InvivoGen) containing a colorimetric substrate for SEAP (UV-Vis, 637 nm).
The experiments followed manufacturer protocol as follows: SEAP levels were measured via absorbance at 637 nm using HEK-Blue Detection cell culture medium (InvivoGen), which contains a SEAP-specific colorimetric substrate. Compound stock solutions were first diluted in sterile DMSO at a concentration of 10 mM. Lower concentrations were prepared by serial dilution of the initial 10 mM stock samples into sterile DMSO and these solutions (22 μL) were subsequently diluted into sterile H2O (198 μL) using a BioTek Precision XS pipetting system. HEK-Blue hTLR7, HEK-Blue hTLR8, Null 1−k, and Null 1 cell suspensions in sterile HEK-Blue Detection medium were prepared at a density of 220,000 cells per mL. Clear bottom, 96-well tissue culture treated plates (Corning) were seeded with hTLR7 and Null 1−k or hTLR8 and Null 1 cell suspensions (180 μL/well), after which 20 μL of the various sample concentrations in 10% v/v DMSO/H2O were added (20 μL) in quadruplicate wells to yield the desired testing concentration in 1% v/v DMSO cell suspension. Plates were incubated at 37° C. and 5% CO2 in the dark. Absorbance measurements were taken at 637 nm at 12 hours, 4 replicates per concentration point, per cell line (hTLR7, hTLR8, Null 1−k, Null 1). Three independent measurements on different days were performed for each analog.
Corresponding well absorbance values for each concentration tested were averaged with respect to days tested, and the average relative NF-κB induction (UV-Vis, 637 nm) of the null cell lines (Null 1-k or Null 1) were subtracted from the respective average TLR expressing cell line (hTLR7 or hTLR8) absorbance averages. […] The three independent, normalized averages for each analog were then pooled, and the data was fit using the Hill-Slope model (GraphPad Prism v7.0) using the non-linear fit from the [Agonist] vs. response—Variable Slope (four parameters) with a hill slope constrained to less than 3.
(In general: Reporter assays use an easily measured gene product as a stand-in for the process of interest.)

The next experiment addresses T2, human TLR7 (hTLR7) (Homo sapiens, UniProt Q9NYK1).
T2 construct: host or cells: HEK-293 (HEK-Blue hTLR7)
T2 sequence (Q9NYK1 27-1049): T1 sequence (Q9NYK1 27-1049)
Description: In vitro TLR7 activity assay (HEK-Blue hTLR7, QUANTI-Blue, Example 3). Format: cell-based. The settings on record: 16 h incubation; Null 1-k subtracted. The procedure:
TLR agonist activity was measured in a dose-response study using reporter cell lines expressing the human TLR7 (hTLR7). […] The hTLR7 activity of R848-Toco, the formulation and its components were assessed using HEK-293 cells co-transfected with the hTLR7 gene and an inducible SEAP reporter gene along with the corresponding null control line (HEK-Blue™ hTLR7 and Null-1k cells, Invivogen). Cells were maintained in DMEM media with selective antibiotics according to the manufacturer protocol.^26 HEK-Blue™ cells were seeded into 96 well plates at a density of 220,000 cells/mL with 180 μL/well of culture medium. Stock solutions in DMSO were first serially diluted to seven concentrations (DMSO solutions further diluted into H2O). Each well was stimulated with 20 μL of agonists or agonist-free controls (equivalent concentration of HA-Toco, D-α-Tocopherol succinate, PBS or […] DMSO) at the determined final concentrations in 5 replicates. After 16 h of incubation at 37° C. in a 5% CO2 atmosphere, 20 μL of the supernatant from each well was sampled and spiked into 180 μL of QUANTI-Blue™ solution followed by incubation for 1 h at 37° C. Relative hTLR7 activity was then analyzed by UV-Vis at 637 nm using a microplate UV reader (SpectraMAX GeminiXS, Molecular Devices, San Jose, CA, USA). For each compound and concentration, a corresponding sample was applied to the HEK-Blue™ Null-1k cell line. The TLR7 agonist activity was determined after averaging across hTLR7 replications and subtracting the averaged Null response.
Activation levels were calculated as the difference between the average readings of the hTLR7 cell line and the Null 1-k cell line, to account for non-hTLR7 related induction of NF-κB. […] Therefore, this study confirmed that R848-Toco, formulated with HA-Toco as an emulsion, maintained its TLR agonist activity. […]

SMILES strings stand for the structures.

For the molecule `CCOCc1nc2c(N)nc3ccccc3c2n1CC(C)(C)O` [Compound 2, resiquimod, reference compound], on hTLR7, the “agonist for TLR7 receptor (in words)” value is recorded as “agonists”. The “hTLR7 activation (NF-κB, in words)” value on human TLR7 (hTLR7) is on record as “strong dose-dependent activation”.
